According to patent US20080026065A1, “Powdered Compositions Of Sensitive Active Materials In An At Least Partially Amorphous State” (priority 2004, published 2008):

Assay: Moisture uptake at 75% relative humidity, gravimetric
Format: physicochemical
Conditions: freeze dried matrices, 75% RH atmosphere, 8 hours; for moisture uptake (percentage weight increase): FIG. 1
Procedure: Following lyophilisation the resultant freeze dried matrices were exposed to a 75% RH (Relative Humidity) atmosphere for a period of 8 hours. At intervals over this period, moisture uptake of each sample was measured gravimetrically and calculated as a percentage weight increase of the sample.

Compound	moisture uptake (percentage weight increase)	physical quality of sample after moisture exposure
OC[C@@H](O)[C@@H](O)[C@H](O)[C@H](O)CO [mannitol]	no appreciable moisture uptake	–
OC[C@H]1O[C@H](O[C@H]2O[C@H](CO)[C@@H](O)[C@H](O)[C@H]2O)[C@H](O)[C@@H](O)[C@@H]1O [trehalose]	significant moisture uptake	deterioration in the physical quality
